# Measured values taken from US5556744A, “Methods and compositions for diagnosing and treating certain HIV infected patients” (The Trustees of the University of Pennsylvania, priority 1994, dated 1996).
# Legend:
# Parameters in all cases: species or system human
# [1] = tested on: sera samples (antibodies); experiment: ELISA peptide-binding of maternal sera, MN strain peptides (Example 7); conditions: for % Bound, Non-Transmitter / No. of Sera Samples Bound, Non-Transmitter / % Bound, Transmitter / No. of Sera Samples Bound, Transmitter: n = 5; for Correlation of peptide binding with non-transmission (in words): Example 7
# Description: This example provides additional sera screens using peptides corresponding to sequences of the MN strain. The sera samples (5 transmitters and 5 non-transmitters) were obtained from the NIH and differ from those screened in the previous studies. Peptide binding was analyzed by ELISA as described in Example 3.
# [2] = tested on: maternal sera (antibodies); experiment: ELISA peptide-binding of maternal sera (Example 6); conditions: for Number of Non-Transmitters which bound to peptide / Percent of Non-Transmitters which bound to peptide: N = 12; for Number of Transmitters which bound to peptide / Percent of Transmitters which bound to peptide: N = 4
# In short: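 HIV-1 envelope peptides averaging 16 amino acids, covering external and transmembrane glycoprotein, were probed by ELISA. Third-trimester maternal sera, classed as transmitter or non-transmitter by child diagnosis, were each run on at least 40 peptides. Values give percent of sera binding a peptide.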
# [3] = tested on: maternal HIV+ sera (antibodies); experiment: RIA / ELISA binding of maternal HIV+ sera to gp120 and gp41 peptides (Example 3)
# In short: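 Maternal sera, diluted 1:50 and 1:500, were bound overnight at 4°C to peptides immobilized at 10 μg/ml (pH 9.6 carbonate) and blocked with 1% BSA. Read-out was ¹²⁵I-labelled anti-human IgG counts or HRP-TMB OD450. Signal with peptide minus without was expressed relative to seronegative serum.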
# [4] = Serum No. 1, Non-Transmission Group
# [5] = Serum No. 2, Non-Transmission Group
# [6] = Serum No. 3, Non-Transmission Group
# [7] = Serum No. 4, Transmission Group
# [8] = Serum No. 5, Transmission Group
# [9] = Serum No. 6, Non-Transmission Group
# [10] = Serum No. 7, Non-Transmission Group
# [11] = Serum No. 8, Non-Transmission Group
# [12] = Serum No. 9, Non-Transmission Group
# [13] = Serum No. 10, Transmission Group
# [14] = Serum No. 11, Non-Transmission Group
# [15] = Serum No. 12, Non-Transmission Group
# [16] = Serum No. 13, Transmission Group
# [17] = Serum No. 14, Transmission Group
# [18] = Serum No. 15, Transmission Group
# [19] = Serum No. 16, Non-Transmission Group
# [20] = Serum No. 17, Non-Transmission Group
# [21] = Serum No. 18, Non-Transmission Group
# [22] = Serum No. 19, Transmission Group
# [23] = Serum No. 20, Non-Transmission Group
substance,measurement,setting,value
"MN-10: gp41 peptide, amino acids 716-730, HIV strain MN, SEQ ID NO: 158","% Bound, Non-Transmitter",[1],20%
same,"No. of Sera Samples Bound, Non-Transmitter",[1],1
same,"% Bound, Transmitter",[1],20%
same,"No. of Sera Samples Bound, Transmitter",[1],1
HMLQLTVWGIKQLQAR [MN-15],Correlation of peptide binding with non-transmission (in words),[1],selectively correlate with non-transmission
same,"% Bound, Non-Transmitter",[1],60%
same,"No. of Sera Samples Bound, Non-Transmitter",[1],3
same,"% Bound, Transmitter",[1],0%
same,"No. of Sera Samples Bound, Transmitter",[1],0
"MN-19: gp41 peptide, amino acids 531-540, HIV strain MN, SEQ ID NO: 169 (MGAASVTLTV)","% Bound, Non-Transmitter",[1],20%
same,"No. of Sera Samples Bound, Non-Transmitter",[1],1
same,"% Bound, Transmitter",[1],20%
same,"No. of Sera Samples Bound, Transmitter",[1],1
"MN-12: gp41 peptide, amino acids 830-842, HIV strain MN, SEQ ID NO: 197","% Bound, Non-Transmitter",[1],0%
same,"No. of Sera Samples Bound, Non-Transmitter",[1],0
same,"% Bound, Transmitter",[1],0%
same,"No. of Sera Samples Bound, Transmitter",[1],0
HIPTRIRQGLERALL [MN-11],Correlation of peptide binding with non-transmission (in words),[1],selectively correlate with non-transmission
same,"% Bound, Non-Transmitter",[1],60%
same,"No. of Sera Samples Bound, Non-Transmitter",[1],3
same,"% Bound, Transmitter",[1],0%
same,"No. of Sera Samples Bound, Transmitter",[1],0
DREINNYTSLIHSLI [Peptide 40],Number of Non-Transmitters which bound to peptide,[2],1
same,Percent of Non-Transmitters which bound to peptide,[2],8.3%
same,Number of Transmitters which bound to peptide,[2],0
same,Percent of Transmitters which bound to peptide,[2],0%
same,Binding of maternal HIV+ serum to peptide (sera/NHS ratio),[3]; [4],"- (specific OD450 or cpm of sera sample binding to peptide divided by the specific OD450 or cpm of NHS sample binding to peptide, which value is less than 2)"
same,Binding of maternal HIV+ serum to peptide (sera/NHS ratio),[3]; [5],"- (specific OD450 or cpm of sera sample binding to peptide divided by the specific OD450 or cpm of NHS sample binding to peptide, which value is less than 2)"
same,Binding of maternal HIV+ serum to peptide (sera/NHS ratio),[3]; [6],"- (specific OD450 or cpm of sera sample binding to peptide divided by the specific OD450 or cpm of NHS sample binding to peptide, which value is less than 2)"
same,Binding of maternal HIV+ serum to peptide (sera/NHS ratio),[3]; [7],"- (specific OD450 or cpm of sera sample binding to peptide divided by the specific OD450 or cpm of NHS sample binding to peptide, which value is less than 2)"
same,Binding of maternal HIV+ serum to peptide (sera/NHS ratio),[3]; [8],"- (specific OD450 or cpm of sera sample binding to peptide divided by the specific OD450 or cpm of NHS sample binding to peptide, which value is less than 2)"
same,Binding of maternal HIV+ serum to peptide (sera/NHS ratio),[3]; [9],"- (specific OD450 or cpm of sera sample binding to peptide divided by the specific OD450 or cpm of NHS sample binding to peptide, which value is less than 2)"
same,Binding of maternal HIV+ serum to peptide (sera/NHS ratio),[3]; [10],"- (specific OD450 or cpm of sera sample binding to peptide divided by the specific OD450 or cpm of NHS sample binding to peptide, which value is less than 2)"
same,Binding of maternal HIV+ serum to peptide (sera/NHS ratio),[3]; [11],"- (specific OD450 or cpm of sera sample binding to peptide divided by the specific OD450 or cpm of NHS sample binding to peptide, which value is less than 2)"
same,Binding of maternal HIV+ serum to peptide (sera/NHS ratio),[3]; [12],"- (specific OD450 or cpm of sera sample binding to peptide divided by the specific OD450 or cpm of NHS sample binding to peptide, which value is less than 2)"
same,Binding of maternal HIV+ serum to peptide (sera/NHS ratio),[3]; [13],"- (specific OD450 or cpm of sera sample binding to peptide divided by the specific OD450 or cpm of NHS sample binding to peptide, which value is less than 2)"
same,Binding of maternal HIV+ serum to peptide (sera/NHS ratio),[3]; [14],"- (specific OD450 or cpm of sera sample binding to peptide divided by the specific OD450 or cpm of NHS sample binding to peptide, which value is less than 2)"
same,Binding of maternal HIV+ serum to peptide (sera/NHS ratio),[3]; [15],"- (specific OD450 or cpm of sera sample binding to peptide divided by the specific OD450 or cpm of NHS sample binding to peptide, which value is less than 2)"
same,Binding of maternal HIV+ serum to peptide (sera/NHS ratio),[3]; [16],"- (specific OD450 or cpm of sera sample binding to peptide divided by the specific OD450 or cpm of NHS sample binding to peptide, which value is less than 2)"
same,Binding of maternal HIV+ serum to peptide (sera/NHS ratio),[3]; [17],"- (specific OD450 or cpm of sera sample binding to peptide divided by the specific OD450 or cpm of NHS sample binding to peptide, which value is less than 2)"
same,Binding of maternal HIV+ serum to peptide (sera/NHS ratio),[3]; [18],"- (specific OD450 or cpm of sera sample binding to peptide divided by the specific OD450 or cpm of NHS sample binding to peptide, which value is less than 2)"
same,Binding of maternal HIV+ serum to peptide (sera/NHS ratio),[3]; [19],"- (specific OD450 or cpm of sera sample binding to peptide divided by the specific OD450 or cpm of NHS sample binding to peptide, which value is less than 2)"
same,Binding of maternal HIV+ serum to peptide (sera/NHS ratio),[3]; [20],"- (specific OD450 or cpm of sera sample binding to peptide divided by the specific OD450 or cpm of NHS sample binding to peptide, which value is less than 2)"
same,Binding of maternal HIV+ serum to peptide (sera/NHS ratio),[3]; [21],"- (specific OD450 or cpm of sera sample binding to peptide divided by the specific OD450 or cpm of NHS sample binding to peptide, which value is less than 2)"
same,Binding of maternal HIV+ serum to peptide (sera/NHS ratio),[3]; [22],"- (specific OD450 or cpm of sera sample binding to peptide divided by the specific OD450 or cpm of NHS sample binding to peptide, which value is less than 2)"
same,Binding of maternal HIV+ serum to peptide (sera/NHS ratio),[3]; [23],"- (specific OD450 or cpm of sera sample binding to peptide divided by the specific OD450 or cpm of NHS sample binding to peptide, which value is less than 2)"
EGGERDRDRSIRLVN [Peptide 129],Number of Non-Transmitters which bound to peptide,[2],0
same,Percent of Non-Transmitters which bound to peptide,[2],0%
same,Number of Transmitters which bound to peptide,[2],0
same,Percent of Transmitters which bound to peptide,[2],0%
same,Binding of maternal HIV+ serum to peptide (sera/NHS ratio),[3]; [4],+ (which value is between 2 to 3)
same,Binding of maternal HIV+ serum to peptide (sera/NHS ratio),[3]; [5],"- (specific OD450 or cpm of sera sample binding to peptide divided by the specific OD450 or cpm of NHS sample binding to peptide, which value is less than 2)"
same,Binding of maternal HIV+ serum to peptide (sera/NHS ratio),[3]; [6],"- (specific OD450 or cpm of sera sample binding to peptide divided by the specific OD450 or cpm of NHS sample binding to peptide, which value is less than 2)"
same,Binding of maternal HIV+ serum to peptide (sera/NHS ratio),[3]; [7],"- (specific OD450 or cpm of sera sample binding to peptide divided by the specific OD450 or cpm of NHS sample binding to peptide, which value is less than 2)"
same,Binding of maternal HIV+ serum to peptide (sera/NHS ratio),[3]; [8],"- (specific OD450 or cpm of sera sample binding to peptide divided by the specific OD450 or cpm of NHS sample binding to peptide, which value is less than 2)"
same,Binding of maternal HIV+ serum to peptide (sera/NHS ratio),[3]; [9],"- (specific OD450 or cpm of sera sample binding to peptide divided by the specific OD450 or cpm of NHS sample binding to peptide, which value is less than 2)"
same,Binding of maternal HIV+ serum to peptide (sera/NHS ratio),[3]; [10],"- (specific OD450 or cpm of sera sample binding to peptide divided by the specific OD450 or cpm of NHS sample binding to peptide, which value is less than 2)"
same,Binding of maternal HIV+ serum to peptide (sera/NHS ratio),[3]; [11],"- (specific OD450 or cpm of sera sample binding to peptide divided by the specific OD450 or cpm of NHS sample binding to peptide, which value is less than 2)"
same,Binding of maternal HIV+ serum to peptide (sera/NHS ratio),[3]; [12],"- (specific OD450 or cpm of sera sample binding to peptide divided by the specific OD450 or cpm of NHS sample binding to peptide, which value is less than 2)"
same,Binding of maternal HIV+ serum to peptide (sera/NHS ratio),[3]; [13],"- (specific OD450 or cpm of sera sample binding to peptide divided by the specific OD450 or cpm of NHS sample binding to peptide, which value is less than 2)"
same,Binding of maternal HIV+ serum to peptide (sera/NHS ratio),[3]; [14],"- (specific OD450 or cpm of sera sample binding to peptide divided by the specific OD450 or cpm of NHS sample binding to peptide, which value is less than 2)"
same,Binding of maternal HIV+ serum to peptide (sera/NHS ratio),[3]; [15],"- (specific OD450 or cpm of sera sample binding to peptide divided by the specific OD450 or cpm of NHS sample binding to peptide, which value is less than 2)"
same,Binding of maternal HIV+ serum to peptide (sera/NHS ratio),[3]; [16],"- (specific OD450 or cpm of sera sample binding to peptide divided by the specific OD450 or cpm of NHS sample binding to peptide, which value is less than 2)"
same,Binding of maternal HIV+ serum to peptide (sera/NHS ratio),[3]; [17],"- (specific OD450 or cpm of sera sample binding to peptide divided by the specific OD450 or cpm of NHS sample binding to peptide, which value is less than 2)"
same,Binding of maternal HIV+ serum to peptide (sera/NHS ratio),[3]; [18],"- (specific OD450 or cpm of sera sample binding to peptide divided by the specific OD450 or cpm of NHS sample binding to peptide, which value is less than 2)"
same,Binding of maternal HIV+ serum to peptide (sera/NHS ratio),[3]; [19],"- (specific OD450 or cpm of sera sample binding to peptide divided by the specific OD450 or cpm of NHS sample binding to peptide, which value is less than 2)"
same,Binding of maternal HIV+ serum to peptide (sera/NHS ratio),[3]; [20],"- (specific OD450 or cpm of sera sample binding to peptide divided by the specific OD450 or cpm of NHS sample binding to peptide, which value is less than 2)"
same,Binding of maternal HIV+ serum to peptide (sera/NHS ratio),[3]; [21],"- (specific OD450 or cpm of sera sample binding to peptide divided by the specific OD450 or cpm of NHS sample binding to peptide, which value is less than 2)"
same,Binding of maternal HIV+ serum to peptide (sera/NHS ratio),[3]; [22],"- (specific OD450 or cpm of sera sample binding to peptide divided by the specific OD450 or cpm of NHS sample binding to peptide, which value is less than 2)"
same,Binding of maternal HIV+ serum to peptide (sera/NHS ratio),[3]; [23],"- (specific OD450 or cpm of sera sample binding to peptide divided by the specific OD450 or cpm of NHS sample binding to peptide, which value is less than 2)"
